This assay relates to P388 leukemia ip, CD2F1 mice, survival T/C. Description: NCI In Vivo Anticancer Drug Screen. Data for tumor model P388 Leukemia (intraperitoneal) in CD2F1 (CDF1) mice. To be noted: endpoint: median survival time, higher = longer survival. The method in brief: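 Mice carrying the transplanted tumor received test compound or vehicle. Survival was recorded in each group, and the value is the treated-group measurement divided by that of the vehicle-treated control group.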

Setting [1] is: dose: 50.0 mg/kg/injection, schedule: Q01DX009 (ip), vehicle: saline with Tween-80.
The mark [2] stands for this setting: dose: 100.0 mg/kg/injection, schedule: Q01DX009 (ip), vehicle: saline with Tween-80.
[3] abbreviates: dose: 200.0 mg/kg/injection, schedule: Q01DX009 (ip), vehicle: saline with Tween-80.
Where [4] appears, read: dose: 60.0 mg/kg/injection, schedule: Q01DX005 (ip), vehicle: saline with Tween-80.
Where [5] appears, read: dose: 120.0 mg/kg/injection, schedule: Q01DX005 (ip), vehicle: saline with Tween-80.
Setting [6] is: dose: 240.0 mg/kg/injection, schedule: Q01DX005 (ip), vehicle: saline with Tween-80.
Where [7] appears, read: dose: 50.0 mg/kg/injection, schedule: Q01DX005 (ip), vehicle: saline with Tween-80.
[8] abbreviates: dose: 100.0 mg/kg/injection, schedule: Q01DX005 (ip), vehicle: saline with Tween-80.
Setting [9] is: dose: 200.0 mg/kg/injection, schedule: Q01DX005 (ip), vehicle: saline with Tween-80.
Where [10] appears, read: dose: 50.0 mg/kg/injection, schedule: Q01DX005 (ip), vehicle: Klucel (hydroxypropylcellulose) (HPC).
Where [11] appears, read: dose: 100.0 mg/kg/injection, schedule: Q01DX005 (ip), vehicle: Klucel (hydroxypropylcellulose) (HPC).
The mark [12] stands for this setting: dose: 200.0 mg/kg/injection, schedule: Q01DX005 (ip), vehicle: Klucel (hydroxypropylcellulose) (HPC).
The mark [13] stands for this setting: dose: 100.0 mg/kg/injection, schedule: Q01DX001 (ip), vehicle: saline.
Setting [14] is: dose: 200.0 mg/kg/injection, schedule: Q01DX001 (ip), vehicle: saline.

Where “and” joins values, the source holds several entries; their conditions need not be identical. Identical values can stand only once. Inconclusive results and toxic doses are left out.

For `Cc1cc(O)c(C)c(C(=O)O)c1`, the T/C was 99 % of control under setting [1], 99 % of control under setting [2] and 92 % of control under setting [3].
As to `COC(=O)CCCCC1=CCC2C(=O)C=C(O)C2C1` (stereo not given), the T/C runs as follows: under setting [4], 87 % of control; under setting [5], 106 % of control; under setting [6], 116 % of control.
As for `CN(C)CCC(=O)/C=C/c1ccc(Cl)c(Cl)c1`, the T/C is 92 % of control (dose: 6.25 mg/kg/injection, schedule: Q01DX009 (ip), vehicle: saline with Tween-80); 101 % of control (dose: 12.5 mg/kg/injection, schedule: Q01DX009 (ip), vehicle: saline with Tween-80); 113 % of control (dose: 25.0 mg/kg/injection, schedule: Q01DX009 (ip), vehicle: saline with Tween-80); 116 % of control under setting [1].
As to `C[n+]1cccc(Oc2ccc[n+](C)c2)c1`, the T/C is 100 % of control under setting [4], 99 % of control under setting [5] and 109 % of control under setting [6].
Regarding `CCOC(=O)c1cccc2c(=O)c3c([nH]c12)C(=O)c1c([nH]c2c(C(=O)OCC)cccc2c1=O)C3=O`, the T/C (dose: 50.0 mg/kg/injection, schedule: Q01DX009 (ip), vehicle: Klucel (hydroxypropylcellulose) (HPC)) is 98 % of control; the T/C (dose: 100.0 mg/kg/injection, schedule: Q01DX009 (ip), vehicle: Klucel (hydroxypropylcellulose) (HPC)) is 90 % of control; the T/C (dose: 200.0 mg/kg/injection, schedule: Q01DX009 (ip), vehicle: Klucel (hydroxypropylcellulose) (HPC)) is 90 % of control.
Turning to `CCn1c2ccc(N=C=O)cc2c2c3[nH]c(=O)c4cccn4c3ccc21`, the T/C reads like this: under setting [7], 95 % of control; under setting [8], 88 % of control; under setting [9], 86 % of control.
In the case of `O=C(O)CC(=O)O.[Cu+2].[NH-]C1CCCC2CCC[N-]C12` (stereo not given), the T/C (dose: 5.0 mg/kg/injection, schedule: Q04DX002 (ip), vehicle: saline) is 93 % of control and the T/C (dose: 10.0 mg/kg/injection, schedule: Q04DX002 (ip), vehicle: saline) was 108 % of control.
In the case of `C/C(=N/N/C=N/S(C)(=O)=O)c1ccccc1`, the T/C under setting [10] is 103 % of control, the T/C under setting [11] is 100 % of control and the T/C under setting [12] was 99 % of control.
`Nc1[nH]c(=O)ncc1CS(=O)(=O)O`: the T/C runs as follows: (dose: 50.0 mg/kg/injection, schedule: Q04DX002 (ip), vehicle: saline with Tween-80) 97 % of control; (dose: 100.0 mg/kg/injection, schedule: Q04DX002 (ip), vehicle: saline with Tween-80) 108 % of control; (dose: 200.0 mg/kg/injection, schedule: Q04DX002 (ip), vehicle: saline with Tween-80) 107 % of control.
Turning to `C/C=C/CC(/C(C)=N\[N+](C)(C)C)c1ccccc1` (stereo not given), the T/C (dose: 100.0 mg/kg/injection, schedule: Q04DX003 (ip), vehicle: saline) is 107 % of control; the T/C (dose: 200.0 mg/kg/injection, schedule: Q04DX003 (ip), vehicle: saline) is 97 % of control; the T/C (dose: 400.0 mg/kg/injection, schedule: Q04DX003 (ip), vehicle: saline) is 99 % of control.
On to `CSc1nc(NC2OCC(OC(C)=O)C(OC(C)=O)C2OC(C)=O)c(N=C(C)C(C)=O)c(=O)[nH]1` (stereo not given), for which the T/C is 95 % of control under setting [4], 108 % of control under setting [5] and 95 % of control under setting [6].
For the compound `CNC(=S)NNc1cccc([N+](=O)[O-])c1`, the T/C (dose: 25.0 mg/kg/injection, schedule: Q01DX009 (ip), vehicle: other) is 96 % of control; the T/C (dose: 50.0 mg/kg/injection, schedule: Q01DX009 (ip), vehicle: other) is 106 % of control; the T/C (dose: 100.0 mg/kg/injection, schedule: Q01DX009 (ip), vehicle: other) is 91 % of control; the T/C (dose: 200.0 mg/kg/injection, schedule: Q01DX009 (ip), vehicle: other) was 92 % of control.
For `CNC1C(O)C2Oc3c(cc(O)c4c3C(=O)c3cc5c(c(O)c3C4=O)C(OC)CC(C)(O)C5)C(C)(O2)C1O` (stereo not given), the T/C (dose: 0.62 mg/kg/injection, schedule: Q01DX009 (ip), vehicle: saline) was 151 % of control; the T/C (dose: 1.25 mg/kg/injection, schedule: Q01DX009 (ip), vehicle: saline) is 173 % of control; the T/C (dose: 2.5 mg/kg/injection, schedule: Q01DX009 (ip), vehicle: saline) was 115 % of control.
For the compound `O=C(c1ccccc1)c1cnc2ccccn12`, the T/C reads like this: (dose: 100.0 mg/kg/injection, schedule: Q04DX003 (ip), vehicle: Klucel (hydroxypropylcellulose) (HPC)) 100 % of control; (dose: 200.0 mg/kg/injection, schedule: Q04DX003 (ip), vehicle: Klucel (hydroxypropylcellulose) (HPC)) 100 % of control.
`CC(=O)OC1C2CC(Cl)C1C2` (stereo not given): the T/C reads like this: under setting [1], 100 % of control; under setting [2], 109 % of control; under setting [3], 105 % of control.
On to `CCCCN(CC)CC(CC)Nc1cc(OC)cc2cccnc12` (stereo not given), for which the T/C is, setting by setting: under setting [7], 102 % of control; under setting [8], 95 % of control; under setting [9], 101 % of control.
For `O=C1OCCC1C(=O)c1ccccc1` (stereo not given), the T/C is, setting by setting: (dose: 50.0 mg/kg/injection, schedule: Q01DX001 (ip), vehicle: saline) 112 % of control; under setting [13], 112 % of control; under setting [14], 97 % of control.
Take `O=C1OC2(CCCCC2)Cc2oc3ccccc3c(=O)c21`: the T/C by setting is: (dose: 25.0 mg/kg/injection, schedule: Q01DX005 (ip), vehicle: Klucel (hydroxypropylcellulose) (HPC)) 98 % of control; under setting [10], 100 % of control; under setting [11], 90 % of control.
Turning to `[N-]=[N+]=NC(=O)c1cnn(-c2ccccc2)c1N`, the T/C is 101 % of control (dose: 15.0 mg/kg/injection, schedule: Q01DX005 (ip), vehicle: saline with Tween-80); 97 % of control (dose: 30.0 mg/kg/injection, schedule: Q01DX005 (ip), vehicle: saline with Tween-80); 106 % of control and 95 % of control under setting [4].
For `N=C(N)SC1C=C(O)C=C(c2c(O)c(=O)oc3ccccc23)C1=O` (stereo not given), the T/C by setting is: under setting [7], 104 % of control; under setting [8], 103 % of control; under setting [9], 88 % of control.
Regarding `O=C(NCCN(C(=O)C(F)(F)F)c1ccc(F)cc1)C(F)(F)F`, the T/C by setting is: under setting [1], 100 % of control; under setting [2], 100 % of control; under setting [3], 101 % of control.
As for `CCN(CC)CCOC(=O)CC1CCCCC1`, the T/C was 102 % of control under setting [1], 100 % of control under setting [2] and 99 % of control under setting [3].
`Cc1cc(O)c(C(c2ccc3c(c2)OCO3)c2c(O)cc(C)[nH]c2=O)c(=O)[nH]1`: the T/C is, setting by setting: under setting [1], 92 % of control; under setting [2], 98 % of control; under setting [3], 95 % of control.
Consider `CC(=O)NCC#N`, for which the T/C is 107 % of control under setting [13]; 102 % of control under setting [14]; 121 % of control (dose: 400.0 mg/kg/injection, schedule: Q01DX001 (ip), vehicle: saline).
As to `COc1cc(Br)c(/C=N/O)cc1OC`, the T/C by setting is: under setting [10], 104 % of control; under setting [11], 95 % of control; under setting [12], 91 % of control.
Consider `CCCCOC(=O)Nc1ccc(C)c(NC(=O)OCCCC)c1`, for which the T/C was 100 % of control (dose: 50.0 mg/kg/injection, schedule: Q01DX009 (ip), vehicle: saline); 102 % of control (dose: 100.0 mg/kg/injection, schedule: Q01DX009 (ip), vehicle: saline); 100 % of control (dose: 200.0 mg/kg/injection, schedule: Q01DX009 (ip), vehicle: saline).
With `O=S(=O)(OI(O)c1ccccc1)c1ccccc1`, the T/C (dose: 12.5 mg/kg/injection, schedule: Q01DX009 (ip), vehicle: water) is 98 % of control; the T/C (dose: 25.0 mg/kg/injection, schedule: Q01DX009 (ip), vehicle: water) is 116 % of control; the T/C (dose: 50.0 mg/kg/injection, schedule: Q01DX009 (ip), vehicle: water) was 105 % of control and 113 % of control.
In the case of `Cc1c2ccnc(C#N)c2c(C)c2c1[nH]c1ccccc12`, the T/C (dose: 0.78 mg/kg/injection, schedule: Q04DX003 (ip), vehicle: distilled water + Tween-80) is 91 % of control; the T/C (dose: 1.56 mg/kg/injection, schedule: Q04DX003 (ip), vehicle: distilled water + Tween-80) was 97 % of control; the T/C (dose: 3.13 mg/kg/injection, schedule: Q04DX003 (ip), vehicle: distilled water + Tween-80) is 97 % of control; the T/C (dose: 6.25 mg/kg/injection, schedule: Q04DX003 (ip), vehicle: distilled water + Tween-80) is 87 % of control and 88 % of control.

(Values after PubChem BioAssay AID330 (DTP/NCI, 2004).)
